Results as given in patent US10710997B2, “Isoquinoline amide and isoquinoline amide-substituted compounds as mGluR4 allosteric potentiators, compositions, and methods of treating neurological dysfunction” (Vanderbilt University, priority 2016, dated 2020).

Columns and labels:
mGlu4 = mGlu4 (UniProt Q14833); conditions: read-out: mGlu4 PAM EC50
[1] = free drug level (fu) in rat plasma; format: in vitro ADME
Source text: (§1) As the only drug that interact with mGlu4 is free drug, the compounds of the present invention have unexpectedly exceptional profiles as putative drug candidates.

[2] = rat brain homogenate binding (BHB); format: in vitro ADME; conditions: read-out: Rat BHB fu
Source text: as §1

[3] = in vitro DMPK: rat intrinsic and predicted hepatic clearance; format: in vitro ADME; conditions: for Rat CLINT: in vitro, unit assumed; for Rat CLHEP: predicted
Source text: as §1

[4] = free drug level (fu) in human plasma; format: in vitro ADME
Source text: as §1

[5] = in vitro DMPK: human intrinsic and predicted hepatic clearance; format: in vitro ADME; conditions: for Human CLINT: in vitro, unit assumed; for Human CLHEP: predicted human clearance, human hepatic blood flow 20 mL/min/kg
Source text: as §1

human mGluR4 = biological target: T1, human mGluR4 (Homo sapiens, UniProt Q14833); assay: human mGluR4 potentiation assay, CHO cells transfected with human mGluR4, Ca2+-sensitive dye; format: cell-based; conditions: human mGlu4; read-out: hmGlu4 EC50
T1 construct: expressed in transfected cells; host or cells: CHO cells
Method: The disclosed compounds and compositions can be evaluated for their ability to act as a potentiator of metabotropic glutamate receptor activity, in particular mGluR4 activity, by any suitable known methodology known in the art. For example, Chinese Hamster Ovary (CHO) cells transfected with human mGluR4 or HEK cells co-transfected with rat mGluR4 and the G-protein regulated Inwardly Rectifying Potassium channel (GIRK) were plated in clear bottom assay plates for assay in a Hamamatsu FDSS Fluorometric Plate Reader. The cells were loaded with either a Ca2+-sensitive fluorescent dye or the thallium responsive dye and the plates were washed and placed into a suitable kinetic plate reader. For human mGluR4 assays, a fluorescence baseline was established for 3-5 seconds, the disclosed compounds were then added to the cells, and the response in cells was measured. Approximately two and a half minutes later, a concentration of mGluR4 orthosteric agonist (e.g. glutamate or L-AP4) eliciting approximately 20% (EC20) of the maximal agonist response was added to the cells, and the response was measured. Two minutes later, a concentration of mGluR4 agonist (e.g. glutamate or L-AP4) eliciting 80% (EC80) of the maximal agonist response was added to the cells, and the response was measured. For rat mGluR4/GIRK experiments, a baseline was established for approximately five seconds, disclosed compounds were added, and either an EC20 or EC80 concentration of agonist was added approximately two and one half minutes later. Potentiation of the agonist response of mGluR4 by the disclosed compounds was observed as an increase in response to the EC20 concentration of agonist in the presence of compound compared to the response to agonist in the absence of compound. Similarly, antagonism of the agonist response of mGluR4 by the disclosed compounds was observed as a decrease in response to the EC80 concentration of agonist in the presence of compound compared to the response to agonist in the absence of compound.
The above described assay operated in two modes. In the first mode, a range of concentrations of the disclosed compounds are added to cells, followed by a single fixed concentration of agonist. If the compound acts as a potentiatior, an EC50 value for potentiation and a maximum extent of potentiation by the compound at this concentration of agonist is determined by non-linear curve fitting. If the compound acts as a noncompetitive antagonist, an IC50 value is determined by non-linear curve fitting. In the second mode, several fixed concentrations of the disclosed compounds are added to various wells on a plate, followed by a range in concentrations of agonist for each concentration of disclosed compound. The EC50 values for the agonist at each concentration of compound are determined by non-linear curve fitting. A decrease in the EC50 value of the agonist with increasing concentrations of the sample compound (a leftward shift of the agonist concentration-response curve) is an indication of the degree of mGluR4 potentiation at a given concentration of the sample compound. A decrease in the maximal response of the agonist with increasing concentrations of the sample compounds, with or without a rightward shift in agonist potency, is an indication of the degree of noncompetitive antagonism at mGluR4. The second mode also indicates whether the sample compounds also affect the maximum response to mGluR4 to agonists.

T1 sequence (Q14833 33-912): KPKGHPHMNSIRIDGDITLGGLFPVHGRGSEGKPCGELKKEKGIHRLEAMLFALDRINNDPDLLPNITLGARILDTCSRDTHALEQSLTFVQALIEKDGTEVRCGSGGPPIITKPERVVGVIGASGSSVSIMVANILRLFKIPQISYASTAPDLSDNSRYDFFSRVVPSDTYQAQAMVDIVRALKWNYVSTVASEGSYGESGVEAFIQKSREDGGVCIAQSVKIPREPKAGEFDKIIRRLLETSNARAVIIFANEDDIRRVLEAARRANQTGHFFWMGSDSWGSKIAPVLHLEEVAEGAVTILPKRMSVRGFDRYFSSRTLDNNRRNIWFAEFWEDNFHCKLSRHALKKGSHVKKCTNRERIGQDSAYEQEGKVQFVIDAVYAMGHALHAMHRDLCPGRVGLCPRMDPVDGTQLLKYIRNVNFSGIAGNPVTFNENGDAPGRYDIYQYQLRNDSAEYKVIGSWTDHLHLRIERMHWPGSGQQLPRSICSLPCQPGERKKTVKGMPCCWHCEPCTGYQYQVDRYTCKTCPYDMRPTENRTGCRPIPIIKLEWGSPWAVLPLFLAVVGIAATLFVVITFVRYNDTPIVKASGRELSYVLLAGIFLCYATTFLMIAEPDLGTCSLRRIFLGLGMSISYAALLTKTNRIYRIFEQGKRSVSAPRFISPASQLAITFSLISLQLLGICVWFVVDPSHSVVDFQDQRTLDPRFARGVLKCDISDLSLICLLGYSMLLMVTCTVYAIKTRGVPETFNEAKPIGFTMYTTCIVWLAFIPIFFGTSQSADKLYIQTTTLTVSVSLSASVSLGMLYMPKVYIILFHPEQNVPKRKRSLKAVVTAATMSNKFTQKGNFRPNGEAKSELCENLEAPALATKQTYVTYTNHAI

| Structure (SMILES) | EC50 (mGlu4) [nM] | fraction unbound [1] | fraction unbound [2] | Rat CLINT [3] [mL/min/kg] | Rat CLHEP [3] [mL/min/kg] | fraction unbound [4] | Human CLINT [5] [mL/min/kg] | Human CLHEP [5] [mL/min/kg] | EC50 (human mGluR4) [nM] |
| --- | --- | --- | --- | --- | --- | --- | --- | --- | --- |
| CN(C(=O)c1nccc2cc(Nc3n[nH]c4cccnc34)ccc12)C1CC(F)C1 (centres unmarked) [Compound 20] | 546 |  |  |  |  |  |  |  |  |
| CN(C(=O)c1nccc2cc(Nc3n[nH]c4ncccc34)ccc12)C1CC(F)C1 (centres unmarked) [Compound 22] | 1800 |  |  |  |  |  |  |  |  |
| CN(C(=O)c1nccc2cc(Nc3n[nH]c4cccnc34)ccc12)C1CC(F)(F)C1 [Compound 23] | 339 |  |  |  |  |  |  |  |  |
| CN(C(=O)c1nccc2cc(Nc3n[nH]c4ncccc34)ccc12)C1CC(F)(F)C1 [Compound 24] | 1240 |  |  |  |  |  |  |  |  |
| CN(C(=O)c1nccc2cc(Nc3n[nH]c4ncccc34)ccc12)C1CCOC1 (centres unmarked) [Compound 25] | 4370 |  |  |  |  |  |  |  |  |
| CN(C(=O)c1nccc2cc(Nc3n[nH]c4cccnc34)ccc12)C1CCOC1 (centres unmarked) [Compound 26] | 1850 |  |  |  |  |  |  |  |  |
| O=C(c1nccc2cc(Nc3n[nH]c4cccnc34)ccc12)N1CCCC(F)(F)C1 [Example 4] |  | 0.158 | 0.05 | 885 | 64.9 | 0.015 | 172 | 18.7 | 117 |
| O=C(c1nccc2cc(Nc3n[nH]c4cccnc34)ccc12)N1CC[C@H](F)C1 [Example 5] |  | 0.327 | 0.095 | 32.5 | 22.2 | 0.094 | 6.91 | 5.20 | 366 |
| CS(=O)(=O)N1CCN(C(=O)c2nccc3cc(Nc4n[nH]c5cccnc45)ccc23)CC1 [Example 6] |  | 0.328 | 0.085 | 230 | 53.7 | 0.134 | 7.44 | 5.49 | 268 |
| O=C(c1nccc2cc(Nc3n[nH]c4cccnc34)ccc12)N1CCC(F)(F)CC1 [Example 7] |  | 0.168 | 0.055 | 568 | 62.3 | 0.094 | 87.4 | 16.9 | 57.7 |
| O=C(NC1CC(F)C1)c1nccc2cc(Nc3n[nH]c4cccnc34)ccc12 (centres unmarked) [Example 8] |  | 0.107 | 0.02 | 32.4 | 22.2 | 0.11 | 6.61 | 5.03 | 21 |
| O=C(NC1CC(F)(F)C1)c1nccc2cc(Nc3n[nH]c4cccnc34)ccc12 [Example 9] |  | 0.076 | 0.01 | 32.8 | 22.3 | 0.09 | 9.01 | 6.30 | 9.91 |
| COC1CC(NC(=O)c2nccc3cc(Nc4n[nH]c5cccnc45)ccc23)C1 (centres unmarked) [Example 10] |  | 0.089 | 0.082 | 26.7 | 19.3 | 0.059 | 10.2 | 6.86 | 25.5 |
| O=C(NC1CCOC1)c1nccc2cc(Nc3n[nH]c4cccnc34)ccc12 (centres unmarked) [Example 11] |  | 0.229 | 0.068 | 2.82 | 2.71 | 0.188 | 0.63 | 0.61 | 59.9 |
| O=C(NC1CC(F)(F)C1)c1nccc2cc(Nc3n[nH]c4ncccc34)ccc12 [Example 27] |  | 0.075 | 0.009 | 37 | 24.2 | 0.073 | 7.64 | 5.60 | 56.2 |
| O=C(c1nccc2cc(Nc3n[nH]c4ncccc34)ccc12)N1CCC(F)(F)CC1 [Example 28] |  | 0.179 | 0.028 | 328 | 57.7 | 0.218 | 83.4 | 16.8 | 511 |
